Structures can show the parent of a compound that is named as a salt.
Molecular target: T1, HiBiT tagged PARP14 (Homo sapiens, UniProt Q460N5)
T1 construct: engineered to contain a HiBiT tag on both alleles of the PARP14 gene; endogenous in cells; host or cells: Jurkat cells stably transfected with LgBiT (Promega), PARP14 locus edited by CRISPR/Cas9
Test: HiBiT assay for the degradation of PARP14 (HiBiT tagged PARP14 in LgBiT expressing Jurkat cells, 2 or 24 hours)
Format: cell-based
Details: Assay B (Example B): HiBiT tagged PARP14 degradation in LgBiT expressing Jurkat cells, read-out: DC50
Method in brief: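 Jurkat cells stably expressing LgBiT with CRISPR knock-in of C-terminal HiBiT on both PARP14 alleles, 5,000 cells/well, treated with compound dose-response at 37 °C for 2 or 24 h. Live Cell Substrate luminescence normalised to 0.1% DMSO wells; DC50 from 4-parameter fit with floating top, bottom, Hill.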

T1 sequence (Q460N5 whole entry): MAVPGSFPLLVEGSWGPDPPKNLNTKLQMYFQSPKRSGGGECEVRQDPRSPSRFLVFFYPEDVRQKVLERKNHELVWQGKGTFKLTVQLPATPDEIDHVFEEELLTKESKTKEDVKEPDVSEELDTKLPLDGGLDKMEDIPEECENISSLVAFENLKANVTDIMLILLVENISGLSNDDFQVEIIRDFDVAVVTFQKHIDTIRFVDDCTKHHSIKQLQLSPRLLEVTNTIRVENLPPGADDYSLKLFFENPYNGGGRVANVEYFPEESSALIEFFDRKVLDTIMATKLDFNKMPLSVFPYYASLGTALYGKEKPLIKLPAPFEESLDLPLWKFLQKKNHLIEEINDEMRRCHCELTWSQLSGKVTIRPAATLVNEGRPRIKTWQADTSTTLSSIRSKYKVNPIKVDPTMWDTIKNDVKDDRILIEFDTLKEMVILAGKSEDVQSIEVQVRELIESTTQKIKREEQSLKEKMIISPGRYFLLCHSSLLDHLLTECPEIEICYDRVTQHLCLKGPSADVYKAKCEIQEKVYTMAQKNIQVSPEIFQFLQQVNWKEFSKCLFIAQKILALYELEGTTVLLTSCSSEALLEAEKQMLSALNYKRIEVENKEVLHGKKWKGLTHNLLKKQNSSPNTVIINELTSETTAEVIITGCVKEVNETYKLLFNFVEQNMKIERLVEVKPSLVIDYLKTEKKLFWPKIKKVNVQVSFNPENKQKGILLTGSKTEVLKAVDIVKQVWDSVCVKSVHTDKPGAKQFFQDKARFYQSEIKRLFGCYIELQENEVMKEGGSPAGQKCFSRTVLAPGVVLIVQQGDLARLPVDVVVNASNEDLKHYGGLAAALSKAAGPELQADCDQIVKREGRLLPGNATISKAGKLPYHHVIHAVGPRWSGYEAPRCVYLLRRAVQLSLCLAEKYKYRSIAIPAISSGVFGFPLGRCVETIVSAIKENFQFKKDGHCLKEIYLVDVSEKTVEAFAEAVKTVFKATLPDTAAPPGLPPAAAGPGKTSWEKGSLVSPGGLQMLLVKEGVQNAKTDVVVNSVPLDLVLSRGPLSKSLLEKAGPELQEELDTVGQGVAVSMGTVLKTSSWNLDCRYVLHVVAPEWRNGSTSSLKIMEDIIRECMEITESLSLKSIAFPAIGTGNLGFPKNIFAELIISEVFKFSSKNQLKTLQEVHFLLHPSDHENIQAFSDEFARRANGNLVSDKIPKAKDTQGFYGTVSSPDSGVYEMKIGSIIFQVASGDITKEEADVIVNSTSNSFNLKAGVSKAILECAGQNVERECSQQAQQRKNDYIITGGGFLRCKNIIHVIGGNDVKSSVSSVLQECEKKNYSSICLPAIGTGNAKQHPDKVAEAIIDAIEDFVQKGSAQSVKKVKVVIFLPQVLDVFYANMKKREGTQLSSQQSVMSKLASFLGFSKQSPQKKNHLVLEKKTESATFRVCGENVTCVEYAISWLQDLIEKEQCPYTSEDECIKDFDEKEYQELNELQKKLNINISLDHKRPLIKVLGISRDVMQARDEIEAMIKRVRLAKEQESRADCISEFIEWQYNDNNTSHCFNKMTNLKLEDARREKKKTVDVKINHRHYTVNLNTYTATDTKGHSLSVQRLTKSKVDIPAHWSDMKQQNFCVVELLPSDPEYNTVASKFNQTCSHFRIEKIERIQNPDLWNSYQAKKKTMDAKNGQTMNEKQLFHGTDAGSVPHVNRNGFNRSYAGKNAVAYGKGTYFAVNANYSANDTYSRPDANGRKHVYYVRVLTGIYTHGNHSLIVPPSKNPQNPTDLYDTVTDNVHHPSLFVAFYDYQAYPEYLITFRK

Row | SMILES | DC50 [nM]
1 | O=C1CCC(Nc2ccc(NC3CC(CN4CCC(COc5cc(F)c6c(=O)[nH]c(CSC7CCOCC7)nc6c5)CC4)C3)c(F)c2)C(=O)N1 (stereo not shown) [Example 150, 3-((3-fluoro-4-((3-((4-(((5-fluoro-4-oxo-2-(((tetrahydro-2H-pyran-4-yl)thio)methyl)-3,4-dihydroquinazolin-7-yl)oxy)methyl)piperidin-1-yl)methyl)cyclobutyl)amino)phenyl)amino)piperidine-2,6-dione formate] | < 30
2 | O=C1CCC(NC(=O)c2ccc(N3CCC(N4CC(N5CCC(COc6cc(F)c7c(=O)[nH]c(CSC8CCOCC8)nc7c6)CC5)C4)CC3)cc2F)C(=O)N1 (stereo not shown) [Example 151, N-(2,6-dioxopiperidin-3-yl)-2-fluoro-4-(4-(3-(4-(((5-fluoro-4-oxo-2-(((tetrahydro-2H-pyran-4-yl)thio)methyl)-3,4-dihydroquinazolin-7-yl)oxy)methyl)piperidin-1-yl)azetidin-1-yl)piperidin-1-yl)benzamide] | < 30
3 | Cn1nc(N2CCC(=O)NC2=O)c2ccc(N3CCC(N4CCC(COc5cc(F)c6c(=O)[nH]c(CSC7CCOCC7)nc6c5)CC4)CC3)cc21 [Example 155, 1-(6-(4-(((5-fluoro-4-oxo-2-(((tetrahydro-2H-pyran-4-yl)thio)methyl)-3,4-dihydroquinazolin-7-yl)oxy)methyl)-[1,4′-bipiperidin]-1′-yl)-1-methyl-1H-indazol-3-yl)dihydropyrimidine-2,4(1H,3H)-dione] | < 30
4 | O=C1CCN(c2ccc(N3CCC(N4CC(N5CCC(COc6cc(F)c7c(=O)[nH]c(CSC8CCOCC8)nc7c6)CC5)C4)CC3)c(F)c2)C(=O)N1 [Example 157, 1-(3-fluoro-4-(4-(3-(4-(((5-fluoro-4-oxo-2-(((tetrahydro-2H-pyran-4-yl)thio)methyl)-3,4-dihydroquinazolin-7-yl)oxy)methyl)piperidin-1-yl)azetidin-1-yl)piperidin-1-yl)phenyl)dihydropyrimidine-2,4(1H,3H)-dione] | < 30
5 | O=C1CCN(c2ccc(N3CCC(N4CCC(COc5cc(F)c6c(=O)[nH]c(CSC7CCOCC7)nc6c5)CC4)CC3)c(F)c2)C(=O)N1 [Example 158, 1-(3-fluoro-4-(4-(((5-fluoro-4-oxo-2-(((tetrahydro-2H-pyran-4-yl)thio)methyl)-3,4-dihydroquinazolin-7-yl)oxy)methyl)-[1,4′-bipiperidin]-1′-yl)phenyl)dihydropyrimidine-2,4(1H,3H)-dione formate] | < 30
6 | Cn1nc(N2CCC(=O)NC2=O)c2ccc(N3CCC(N4CCC(COc5cc(F)c6c(=O)[nH]c(COC7CCOCC7)nc6c5)CC4)CC3)c(F)c21 [Example 159, 1-(7-fluoro-6-(4-(((5-fluoro-4-oxo-2-(((tetrahydro-2H-pyran-4-yl)oxy)methyl)-3,4-dihydroquinazolin-7-yl)oxy)methyl)-[1,4′-bipiperidin]-1′-yl)-1-methyl-1H-indazol-3-yl)dihydropyrimidine-2,4(1H,3H)-dione formate] | < 30
7 | O=C1CCN(c2cncc3c(N4CCC(N5CCC(COc6cc(F)c7c(=O)[nH]c(CSC8CCOCC8)nc7c6)CC5)CC4)cccc23)C(=O)N1 [Example 162, 1-(8-(4-(((5-fluoro-4-oxo-2-(((tetrahydro-2H-pyran-4-yl)thio)methyl)-3,4-dihydroquinazolin-7-yl)oxy)methyl)-[1,4′-bipiperidin]-1′-yl)isoquinolin-4-yl)dihydropyrimidine-2,4(1H,3H)-dione] | < 30
8 | Cn1nc(N2CCC(=O)NC2=O)c2cc(F)c(N3CCC(N4CC(N5CCC(COc6cc(F)c7c(=O)[nH]c(CSC8CCOCC8)nc7c6)CC5)C4)CC3)cc21 [Example 164, 1-(5-fluoro-6-(4-(3-(4-(((5-fluoro-4-oxo-2-(((tetrahydro-2H-pyran-4-yl)thio)methyl)-3,4-dihydroquinazolin-7-yl)oxy)methyl)piperidin-1-yl)azetidin-1-yl)piperidin-1-yl)-1-methyl-1H-indazol-3-yl)dihydropyrimidine-2,4(1H,3H)-dione] | < 30
9 | O=C1CCN(c2ccc(F)c(N3CCC(N4CC(N5CCC(COc6cc(F)c7c(=O)[nH]c(CSC8CCOCC8)nc7c6)CC5)C4)CC3)c2)C(=O)N1 [Example 165, 1-(4-fluoro-3-(4-(3-(4-(((5-fluoro-4-oxo-2-(((tetrahydro-2H-pyran-4-yl)thio)methyl)-3,4-dihydroquinazolin-7-yl)oxy)methyl)piperidin-1-yl)azetidin-1-yl)piperidin-1-yl)phenyl)dihydropyrimidine-2,4(1H,3H)-dione] | < 30

Next, values leading:

Row | DC50 [nM] | SMILES
10 | < 30 | O=C1CCC(Nc2ccc(N3CCC(C(=O)N4CC(N5CCC(COc6cc(F)c7c(=O)[nH]c(CSC8CCOCC8)nc7c6)CC5)C4)CC3)c(F)c2)C(=O)N1 (stereo not shown) [Example 152, 3-((3-fluoro-4-(4-(3-(4-(((5-fluoro-4-oxo-2-(((tetrahydro-2H-pyran-4-yl)thio)methyl)-3,4-dihydroquinazolin-7-yl)oxy)methyl)piperidin-1-yl)azetidine-1-carbonyl)piperidin-1-yl)phenyl)amino)piperidine-2,6-dione formate]
11 | < 30 | O=C1CCC(Nc2ccc(N3CCC(C(=O)N4CCC(COc5cc(F)c6c(=O)[nH]c(CSC7CCOCC7)nc6c5)CC4)CC3)c(F)c2)C(=O)N1 (stereo not shown) [Example 153, 3-((3-fluoro-4-(4-(4-(((5-fluoro-4-oxo-2-(((tetrahydro-2H-pyran-4-yl)thio)methyl)-3,4-dihydroquinazolin-7-yl)oxy)methyl)piperidine-1-carbonyl)piperidin-1-yl)phenyl)amino)piperidine-2,6-dione]
12 | < 30 | O=C1CCC(Nc2ccc(N3CCN(C(=O)N4CCC(COc5cc(F)c6c(=O)[nH]c(CSC7CCOCC7)nc6c5)CC4)CC3)c(F)c2)C(=O)N1 (stereo not shown) [Example 154, 3-((3-fluoro-4-(4-(4-(((5-fluoro-4-oxo-2-(((tetrahydro-2H-pyran-4-yl)thio)methyl)-3,4-dihydroquinazolin-7-yl)oxy)methyl)piperidine-1-carbonyl)piperazin-1-yl)phenyl)amino)piperidine-2,6-dione]
13 | < 30 | Cn1nc(C2CCC(=O)NC2=O)c2ccc(N3CCC(N4CC(N5CCC(COc6cc(F)c7c(=O)[nH]c(CSC8CCOCC8)nc7c6)CC5)C4)CC3)cc21 (stereo not shown) [Example 156, 3-(6-(4-(3-(4-(((5-fluoro-4-oxo-2-(((tetrahydro-2H-pyran-4-yl)thio)methyl)-3,4-dihydroquinazolin-7-yl)oxy)methyl)piperidin-1-yl)azetidin-1-yl)piperidin-1-yl)-1-methyl-1H-indazol-3-yl)piperidine-2,6-dione]
14 | < 30 | Cn1nc(N2CCC(=O)NC2=O)c2cc(F)c(N3CCC(N4CCC(COc5cc(F)c6c(=O)[nH]c(COC7CCOCC7)nc6c5)CC4)CC3)cc21 [Example 160, 1-(5-fluoro-6-(4-(((5-fluoro-4-oxo-2-(((tetrahydro-2H-pyran-4-yl)oxy)methyl)-3,4-dihydroquinazolin-7-yl)oxy)methyl)-[1,4′-bipiperidin]-1′-yl)-1-methyl-1H-indazol-3-yl)dihydropyrimidine-2,4(1H,3H)-dione]
15 | < 30 | Cn1nc(N2CCC(=O)NC2=O)c2ccc(N3CCC(N4CC(N5CCC(COc6cc(F)c7c(=O)[nH]c(CSC8CCOCC8)nc7c6)CC5)C4)CC3)cc21 [Example 161, 1-(6-(4-(3-(4-(((5-fluoro-4-oxo-2-(((tetrahydro-2H-pyran-4-yl)thio)methyl)-3,4-dihydroquinazolin-7-yl)oxy)methyl)piperidin-1-yl)azetidin-1-yl)piperidin-1-yl)-1-methyl-1H-indazol-3-yl)dihydropyrimidine-2,4(1H,3H)-dione]
16 | < 30 | Cn1nc(N2CCC(=O)NC2=O)c2cc(F)c(N3CCC(N4CCC(COc5cc(F)c6c(=O)[nH]c(CSC7CCOCC7)nc6c5)CC4)CC3)cc21 [Example 163, 1-(5-fluoro-6-(4-(((5-fluoro-4-oxo-2-(((tetrahydro-2H-pyran-4-yl)thio)methyl)-3,4-dihydroquinazolin-7-yl)oxy)methyl)-[1,4′-bipiperidin]-1′-yl)-1-methyl-1H-indazol-3-yl)dihydropyrimidine-2,4(1H,3H)-dione]
17 | < 30 | COc1cc(N2CCC(N3CC(N4CCC(COc5cc(F)c6c(=O)[nH]c(CSC7CCOCC7)nc6c5)CC4)C3)CC2)c(F)cc1N1CCC(=O)NC1=O [Example 166, 1-(5-fluoro-4-(4-(3-(4-(((5-fluoro-4-oxo-2-(((tetrahydro-2H-pyran-4-yl)thio)methyl)-3,4-dihydroquinazolin-7-yl)oxy)methyl)piperidin-1-yl)azetidin-1-yl)piperidin-1-yl)-2-methoxyphenyl)dihydropyrimidine-2,4(1H,3H)-dione]
18 | < 30 | O=C1CCN(c2cnc3cc(N4CCC(N5CC(N6CCC(COc7cc(F)c8c(=O)[nH]c(CSC9CCOCC9)nc8c7)CC6)C5)CC4)ccn23)C(=O)N1 [Example 167, 1-(7-(4-(3-(4-(((5-fluoro-4-oxo-2-(((tetrahydro-2H-pyran-4-yl)thio)methyl)-3,4-dihydroquinazolin-7-yl)oxy)methyl)piperidin-1-yl)azetidin-1-yl)piperidin-1-yl)imidazo[1,2-a]pyridin-3-yl)dihydropyrimidine-2,4(1H,3H)-dione]
19 | < 30 | O=C1CCN(c2cnc3cc(N4CCC(N5CC(N6CCC(COc7cc(F)c8c(=O)[nH]c(COC9CCOCC9)nc8c7)CC6)C5)CC4)ccn23)C(=O)N1 [Example 168, 1-(7-(4-(3-(4-(((5-fluoro-4-oxo-2-(((tetrahydro-2H-pyran-4-yl)oxy)methyl)-3,4-dihydroquinazolin-7-yl)oxy)methyl)piperidin-1-yl)azetidin-1-yl)piperidin-1-yl)imidazo[1,2-a]pyridin-3-yl)dihydropyrimidine-2,4(1H,3H)-dione]

Reference: patent US20240101540A1, “TARGETED PROTEIN DEGRADATION OF PARP14 FOR USE IN THERAPY” (Ribon Therapeutics, Inc., priority 2022, published 2024)
